Test results taken from patent US6642392B1 (priority 1997, dated 2003).

How the values were obtained:
Assay type in all cases: in vivo
Puccinia recondita = assay: Test B: wheat leaf rust, preventive spray on wheat seedlings; conditions: for Test B disease control rating: wheat leaf rust, 100 = 100% disease control, 0 = no control, unmarked entries (standard test concentration); for Test B disease control rating (100 = 100% disease control, 0 = no disease control): wheat seedlings sprayed to run-off, inoculated the following day, rating relative to controls, unmarked compounds (standard test rate)
Description: (§1) The resulting test suspensions were then used in the following tests. […]
(§2) The test suspension was sprayed to the point of run-off on wheat seedlings. The following day the seedlings were inoculated with a spore suspension of Puccinia recondita (the causal agent of wheat leaf rust) and incubated in a saturated atmosphere at 20° C. for 24 h, and then moved to a growth chamber at 20° C. for 6 days, after which disease ratings were made.
(§3) Results for Tests A-E are given in Table A. In the table, a rating of 100 indicates 100% disease control and a rating of 0 indicates no disease control (relative to the controls). A dash (-) indicates no test results. ND indicates disease control not determined due to phytotoxicity.

Phytophthora infestans = conditions: for Test D disease control rating: tomato late blight, 100 = 100% disease control, 0 = no control, unmarked entries (standard test concentration); for Test D disease control rating (100 = 100% disease control, 0 = no disease control): tomato seedlings sprayed to run-off, inoculated the following day, rating relative to controls, unmarked compounds (standard test rate)
[1] = test system: Eiysiphe graminis f. sp. tritici; assay: Test A: wheat powdery mildew, preventive spray on wheat seedlings; conditions: for Test A disease control rating: wheat powdery mildew, 100 = 100% disease control, 0 = no control relative to controls, unmarked entries (standard test concentration); for Test A disease control rating (100 = 100% disease control, 0 = no disease control): wheat seedlings sprayed to run-off, inoculated the following day, rating relative to controls, unmarked compounds (standard test rate)
Description: as §1
The test suspension was sprayed to the point of run-off on wheat seedlings. The following day the seedlings were inoculated with a spore dust of Eiysiphe graminis f. sp. tritici, (the causal agent of wheat powdery mildew) and incubated in a growth chamber at 20° C. for 7 days, after which disease ratings were made.
as §3

Pyricularia oryzae = conditions: for Test C disease control rating: rice blast, 100 = 100% disease control, 0 = no control, unmarked entries (standard test concentration); for Test C disease control rating (100 = 100% disease control, 0 = no disease control): rice seedlings sprayed to run-off, inoculated the following day, rating relative to controls, unmarked compounds (standard test rate)
Botrytis cinerea = assay: Test E: gray mold, preventive spray on cucumber seedlings; conditions: for Test E disease control rating: gray mold on cucumber, 100 = 100% disease control, 0 = no control, unmarked entries (standard test concentration)
Description: The resulting test suspensions were then used in the following tests. Spraying these 200 ppm test suspensions to the point of run-off on the test plants is the equivalent of a rate of 500 g/ha.
as §2, with “cucumber” for “wheat”, “Botrytis cinerea” for “Puccinia recondita”, “gray mold on many crops)” for “wheat leaf rust)”, “48” for “24”, “and” for “and then”, “5” for “6”
as §3

C[C@H](COc1cc(Cl)ccc1Cl)NC(=O)C(C#N)C(C)(C)C (single isomer, unassigned) [33a]
Test B disease control rating (Puccinia recondita): 0%
Test D disease control rating (Phytophthora infestans): 0%
Test A disease control rating [1]: 0%
Test C disease control rating (Pyricularia oryzae): 97%
Test E disease control rating (Botrytis cinerea): 0%

CCC1(C(=O)NCCOc2ccccc2)C(C)C1(Cl)Cl (stereo not shown) [compound 153]
Test B disease control rating (Puccinia recondita): 64%
Test D disease control rating (Phytophthora infestans): 92%
Test A disease control rating [1]: 92%
Test C disease control rating (Pyricularia oryzae): 94%
Test E disease control rating (Botrytis cinerea): 0%

CCC1(C(=O)NC(C)COc2cc(C(C)(C)C)ccc2C#N)C(C)C1(Cl)Cl (stereo not shown) [compound 248]
Test B disease control rating (100 = 100% disease control, 0 = no disease control) (Puccinia recondita): 0%
Test D disease control rating (100 = 100% disease control, 0 = no disease control) (Phytophthora infestans): 62%
Test A disease control rating (100 = 100% disease control, 0 = no disease control) [1]: 53%
Test C disease control rating (100 = 100% disease control, 0 = no disease control) (Pyricularia oryzae): 90%
Test E disease control rating (100 = 100% disease control, 0 = no disease control) (Botrytis cinerea; cucumber seedlings sprayed to run-off, inoculated the following day, rating relative to controls, unmarked compounds (standard test rate)): 83%

C[C@H](COc1ccc(Cl)cc1Cl)NC(=O)C(C#N)C(C)(C)C (single isomer, unassigned) [32a]
Test B disease control rating (Puccinia recondita): 27%
Test D disease control rating (Phytophthora infestans): 0%
Test A disease control rating [1]: 0%
Test C disease control rating (Pyricularia oryzae): 91%
Test E disease control rating (Botrytis cinerea): 0%

CCC1(C(=O)NC(C)COn2c(C#N)cc(Cl)c2C)C(C)C1(Cl)Cl (mixture of isomers) [140b]
Test B disease control rating (Puccinia recondita): 28%
Test D disease control rating (Phytophthora infestans): 38%
Test A disease control rating [1]: 63%
Test C disease control rating (Pyricularia oryzae): 74%
Test E disease control rating (Botrytis cinerea): 0%

CCC1(C(=O)NC(C)COc2ccccc2)C(C)C1(Cl)Cl (mixture of isomers) [77a]
Test B disease control rating (Puccinia recondita): 28%
Test A disease control rating [1]: 73%
Test C disease control rating (Pyricularia oryzae): 86%
Test E disease control rating (Botrytis cinerea): 0%

CCC1(C(=O)NC(C)COc2ccccc2F)C(C)C1(Cl)Cl (mixture of isomers) [78b]
Test B disease control rating (Puccinia recondita): 0%
Test A disease control rating [1]: 84%
Test C disease control rating (Pyricularia oryzae): 99%
Test E disease control rating (Botrytis cinerea): 0%

C#CC(C)(C)C(C#N)C(=O)NC(C)COc1cc(Cl)ccc1F (mixture of isomers) [compound 320]
Test B disease control rating (100 = 100% disease control, 0 = no disease control) (Puccinia recondita): 68%
Test D disease control rating (100 = 100% disease control, 0 = no disease control) (Phytophthora infestans): 0%
Test A disease control rating (100 = 100% disease control, 0 = no disease control) [1]: 59%
Test C disease control rating (100 = 100% disease control, 0 = no disease control) (Pyricularia oryzae): 100%

CCC1(C(=O)NC(C)COc2cc(F)c(F)cc2Br)C(C)C1(Cl)Cl (stereo not shown) [compound 235]
Test B disease control rating (100 = 100% disease control, 0 = no disease control) (Puccinia recondita): 0%
Test D disease control rating (100 = 100% disease control, 0 = no disease control) (Phytophthora infestans): 0%
Test A disease control rating (100 = 100% disease control, 0 = no disease control) [1]: 0%
Test C disease control rating (100 = 100% disease control, 0 = no disease control) (Pyricularia oryzae): 91%

CCC1(C(=O)NCCCn2c(C#N)cc(Cl)c2Cl)C(C)C1(Cl)Cl (stereo not shown) [compound 151]
Test B disease control rating (Puccinia recondita): 0%
Test A disease control rating [1]: 0%
Test C disease control rating (Pyricularia oryzae): 91%
Test E disease control rating (Botrytis cinerea): 0%

CC(COc1c(Cl)cc(F)cc1Cl)NC(=O)C(C#N)C(C)(C)C (mixture of isomers) [compound 197]
Test B disease control rating (Puccinia recondita): 0%
Test D disease control rating (Phytophthora infestans): 0%
Test A disease control rating [1]: 59%
Test C disease control rating (Pyricularia oryzae): 86%

Cc1ccc(Cl)c(OCC(C)NC(=O)C(C#N)C(C)(C=CF)CF)c1 (mixture of isomers) [compound 227]
Test B disease control rating (100 = 100% disease control, 0 = no disease control) (Puccinia recondita): 0%
Test D disease control rating (100 = 100% disease control, 0 = no disease control) (Phytophthora infestans): 0%
Test A disease control rating (100 = 100% disease control, 0 = no disease control) [1]: 0%
Test C disease control rating (100 = 100% disease control, 0 = no disease control) (Pyricularia oryzae): 100%

CC(COc1cc(Cl)ccc1F)NC(=O)C(C#N)C(C)(C)C=CF (mixture of isomers) [compound 224]
Test B disease control rating (100 = 100% disease control, 0 = no disease control) (Puccinia recondita): 0%
Test D disease control rating (100 = 100% disease control, 0 = no disease control) (Phytophthora infestans): 5%
Test A disease control rating (100 = 100% disease control, 0 = no disease control) [1]: 85%
Test C disease control rating (100 = 100% disease control, 0 = no disease control) (Pyricularia oryzae): 100%

CCC1(C(=O)NC(C)COc2cc(Cl)ccc2F)C(C)C1(Cl)Cl (stereo not shown) [compound 252]
Test B disease control rating (100 = 100% disease control, 0 = no disease control) (Puccinia recondita): 0%
Test D disease control rating (100 = 100% disease control, 0 = no disease control) (Phytophthora infestans): 5%
Test A disease control rating (100 = 100% disease control, 0 = no disease control) [1]: 0%
Test C disease control rating (100 = 100% disease control, 0 = no disease control) (Pyricularia oryzae): 99%

C=CC(C)(C)C(C#N)C(=O)N[C@H](C)COc1cc(Cl)ccc1F (single isomer, unassigned) [200b]
Test B disease control rating (Puccinia recondita): 0%
Test D disease control rating (Phytophthora infestans): 5%
Test A disease control rating [1]: 0%
Test C disease control rating (Pyricularia oryzae): 100%

C[C@H](COc1cc(Cl)ccc1F)NC(=O)C(C#N)C(C)(C)C (single isomer, unassigned) [198a]
Test B disease control rating (Puccinia recondita): 28%
Test D disease control rating (Phytophthora infestans): 5%
Test A disease control rating [1]: 75%
Test C disease control rating (Pyricularia oryzae): 100%

C[C@H](COc1cc(Cl)ccc1F)NC(=O)C(C#N)C(C)(C)C (single isomer, unassigned) [198b]
Test B disease control rating (Puccinia recondita): 28%
Test D disease control rating (Phytophthora infestans): 5%
Test A disease control rating [1]: 59%
Test C disease control rating (Pyricularia oryzae): 100%

CC(COc1cc(Cl)ccc1F)NC(=O)C(C#N)C(C)C(C)(C)C (mixture of isomers) [compound 199]
Test B disease control rating (Puccinia recondita): 68%
Test D disease control rating (Phytophthora infestans): 5%
Test A disease control rating [1]: 85%
Test C disease control rating (Pyricularia oryzae): 97%

CCCc1ccccc1OCC(C)NC(=O)C(C#N)C(C)(C)C (mixture of isomers) [21b]
Test B disease control rating (Puccinia recondita): 27%
Test A disease control rating [1]: 37%
Test C disease control rating (Pyricularia oryzae): 99%
Test E disease control rating (Botrytis cinerea): 0%

CCC1(C(=O)NC(C)COc2cccc(Br)c2)C(C)C1(Cl)Cl (mixture of isomers) [85a]
Test B disease control rating (Puccinia recondita): 0%
Test A disease control rating [1]: 55%
Test C disease control rating (Pyricularia oryzae): 53%
Test E disease control rating (Botrytis cinerea): 0%

CCC1(C(=O)NCCCn2c(Cl)ccc2C#N)C(C)C1(Cl)Cl (stereo not shown) [compound 152]
Test B disease control rating (Puccinia recondita): 68%
Test A disease control rating [1]: 55%
Test C disease control rating (Pyricularia oryzae): 86%
Test E disease control rating (Botrytis cinerea): 0%

Cc1ccc(F)c(OCC(C)NC(=O)C(C#N)C(C)(C=CF)CF)c1 (mixture of isomers) [compound 226]
Test B disease control rating (100 = 100% disease control, 0 = no disease control) (Puccinia recondita): 0%
Test D disease control rating (100 = 100% disease control, 0 = no disease control) (Phytophthora infestans): 0%
Test A disease control rating (100 = 100% disease control, 0 = no disease control) [1]: 0%
Test C disease control rating (100 = 100% disease control, 0 = no disease control) (Pyricularia oryzae): 100%

CCC1(C(=O)NC(C)COc2ccccc2C#N)C(C)C1(Cl)Cl (mixture of isomers) [89b]
Test B disease control rating (Puccinia recondita): 68%
Test A disease control rating [1]: 26%
Test C disease control rating (Pyricularia oryzae): 91%
Test E disease control rating (Botrytis cinerea): 47%

C=CC(C)(C)C(C#N)C(=O)N[C@H](C)COc1cc(Cl)ccc1F (single isomer, unassigned) [200a]
Test B disease control rating (Puccinia recondita): 0%
Test D disease control rating (Phytophthora infestans): 5%
Test A disease control rating [1]: 0%
Test C disease control rating (Pyricularia oryzae): 100%

CC(COc1c(F)c(F)cc(F)c1F)NC(=O)C(C#N)C(C)(C)C (mixture of isomers) [compound 195]
Test B disease control rating (Puccinia recondita): 0%
Test D disease control rating (Phytophthora infestans): 32%
Test A disease control rating [1]: 85%
Test C disease control rating (Pyricularia oryzae): 99%

CC(COc1cc(F)ccc1OC(F)(F)C(F)F)NC(=O)C(C#N)C(C)(C=CF)CF (mixture of isomers) [compound 225]
Test B disease control rating (100 = 100% disease control, 0 = no disease control) (Puccinia recondita): 86%
Test D disease control rating (100 = 100% disease control, 0 = no disease control) (Phytophthora infestans): 5%
Test A disease control rating (100 = 100% disease control, 0 = no disease control) [1]: 91%
Test C disease control rating (100 = 100% disease control, 0 = no disease control) (Pyricularia oryzae): 100%

CCC1(C(=O)NC(C)COc2cc(F)ccc2Cl)C(C)C1(Cl)Cl (stereo not shown) [compound 253]
Test B disease control rating (100 = 100% disease control, 0 = no disease control) (Puccinia recondita): 0%
Test D disease control rating (100 = 100% disease control, 0 = no disease control) (Phytophthora infestans): 0%
Test A disease control rating (100 = 100% disease control, 0 = no disease control) [1]: 59%
Test C disease control rating (100 = 100% disease control, 0 = no disease control) (Pyricularia oryzae): 100%

CC(COc1c(Br)cc(F)cc1Br)NC(=O)C(C#N)C(C)(C)C (mixture of isomers) [compound 196]
Test B disease control rating (Puccinia recondita): 0%
Test D disease control rating (Phytophthora infestans): 0%
Test A disease control rating [1]: 0%
Test C disease control rating (Pyricularia oryzae): 86%

CCC1(C(=O)NC(C)COc2ccc(F)c(F)c2F)C(C)C1(Cl)Cl (stereo not shown) [compound 238]
Test B disease control rating (100 = 100% disease control, 0 = no disease control) (Puccinia recondita): 0%
Test D disease control rating (100 = 100% disease control, 0 = no disease control) (Phytophthora infestans): 0%
Test A disease control rating (100 = 100% disease control, 0 = no disease control) [1]: 62%
Test C disease control rating (100 = 100% disease control, 0 = no disease control) (Pyricularia oryzae): 74%
